Source: paper PMC12386934, “Characteristics and Potential of KSL, KSL-W, and Dadapin-1 Antimicrobial Peptides for Preventing Infections of Orthopedic Prosthetic Devices: Identifying the Most Robust Candidate” (International Journal of Molecular Sciences, 2025)
Where a SMILES comes first, the peptide text is derived from it.

Key:
Assay type in all cases: cell-based
[1] = test system: E. faecalis cra4033 (EF 02)
Source text: (§1) The experimental scheme reported in Figure 6 helped to simplify and optimize the in vitro testing of the antibacterial activity of the different AMPs. The initial transparent microtiter plate for the determination of the minimum inhibitory concentration (MIC) by optical density (OD) measurement was conveniently used as a starting point not only for the alterative determination of the MIC by luminescence but also for the minimum bactericidal concentration (MBC) and for the minimum biofilm inhibitory concentration (MBIC), as explained below. For every test peptide, at least three independent experiments were performed on each bacterial strain per test condition (100% MHB and 20% MHB). The sole exception to this rule was when MIC values were on rare occasions found to be greater than 500 µg/mL. Under these circumstances, two consecutive experiments were performed to confirm the results. In this case, the antibacterial activity was considered insignificant and the third experiment was generally considered unnecessary.
(§2) The antibacterial properties of the test AMPs were assayed under two distinct conditions of bacterial culture: (i) with bacteria cultured in undiluted Mueller–Hinton II Broth (MHB II) and (ii) with bacteria cultured in diluted MHB II as earlier described in Campoccia et al.. Briefly, a few colonies of each bacterial strain, taken from overnight cultures on Mueller–Hinton Agar plates (MHA, PO50007A, ThermoScientific, Thermo Fisher Scientific, Segrate, Italy), were resuspended in Mueller–Hinton II Broth (MHB II, 24107, Liofilchem, Roseto degli Abruzzi, Italy), either undiluted or at a 20% dilution in deionized water. The concentration of bacteria was adjusted to approximately 10^8 CFU/mL, as estimated by optical density reading at 625 nm, using a Hewlett Packard G1103A spectrophotometer (Waldbronn, Germany). The bacterial suspension was further diluted 1:100 in 100% or 20% MHB II.
(§3) Serial 1:2 dilutions of all the test peptides were prepared in sterile deionized water starting from a stock solution of 1 mg/mL. Microtiter plates (96-Well CytoOne® Plate, CC7672-7596, Starlab S.r.l., Milano, Italy) were prepared by adding a volume of 100 µL of inoculum to 100 µL of treatment. Each AMP dilution was assayed in triplicate; each microplate included triplicate wells for the blank (100 µL of sterile distilled water and 100 µL of sterile MHB II), and 3 to 6 wells for reference control of 100% growth (100 µL of sterile deionized water and 100 µL of MHB II inoculated with the bacterium). Positive controls were performed in triplicate wells with 100 µL of a 10 mg/mL gentamicin solution (G1272, Sigma Aldrich, Milan, Italy) and with 100 µL of a solution containing 10,000 units/mL of penicillin and 10,000 µg/mL of streptomycin (penicillin–streptomycin, 15140-122, Life Technologies, Monza, Italy).
(§4) After a 1-day incubation at 37 °C, the MIC was determined by two distinct methods: (1) optical density measurement and (2) bioluminescence reading. In the first case, the optical density of the microtiter plates was read directly at a wavelength of 600 nm and the MIC was estimated from the curves obtained by plotting the OD measurements. For the bioluminescence reading, after gentle resuspension, 100 µL of each treated culture was transferred to a new 96-well non-treated plate (236105/237105, Life Technologies, Monza, Italy) and the metabolic activity was determined by the kit Bac-Titer Glo Microbial Cell Viability Assay (G8231, Promega Italia S.r.l, Milan, Italy). Optical density and bioluminescence were read by a Modulus II multifunction plate reader (Turner BioSystems, Sunnyvale, CA, USA) or, alternatively, by an Infinite M Plex (Tecan Group Ltd., Männedorf, Switzerland). As earlier described in [24], in the case of luminescence, the MIC was identified from the curves of growth inhibition as the first concentration leading to a 1-log reduction in bacterial growth (i.e., 90% growth inhibition). […]

[2] = test system: S. epidermidis cra4029 (SE 02)
Source text: as §1, §2, §3, §4

E. coli cra4038 (EC) = details: cra4038 (EC)
Source text: as §1, §2, §3
(§5) The wells of the microplate, initially used for the determination of the MIC, were rinsed twice with 220 µL of phosphate-buffered solution (PBS) to remove loosely attached and planktonic bacteria. A total of 100 µL of fresh PBS and 100 µL of Bac-Titer Glo solution (G8231, Promega Italia S.r.l., Milan, Italy) were added to each well. After a 10 min incubation, a volume of 100 µL was transferred to a new microplate for luminescence determination as described above. As a general rule, the MBIC value was identified as the concentration at which a reduction of at least a log in the metabolic activity was observed.

[3] = test system: E. faecalis cra4024 (EF 01)
Source text: as §1, §2, §3, §5

[4] = test system: E. faecalis cra4033 (EF 02); remark: listed apart in the source
Source text: as §1, §2, §3, §5

[5] = test system: P. aeruginosa cra3840 (PA 02); details: cra3840 (PA 02, 24 h)
Source text: as §1, §2, §3, §5

[6] = test system: P. aeruginosa cra4004 (PA 01)
Source text: as §1, §2, §3, §5

[7] = test system: S. aureus cra2198 (SA 02); details: cra2198 (SA 02)
Source text: as §1, §2, §3, §5

[8] = test system: S. aureus cra4030 (SA 01); details: cra4030 (SA 01, 24 h)
Source text: as §1, §2, §3, §5

[9] = test system: S. epidermidis cra4029 (SE 02); remark: listed apart in the source
Source text: as §1, §2, §3, §5

[10] = test system: S. epidermidis cra4034 (SE 01); details: cra4034 (SE 01)
Source text: as §1, §2, §3, §5

With `CC(C)[C@H](NC(=O)[C@H](Cc1c[nH]c2ccccc12)NC(=O)[C@H](Cc1ccccc1)NC(=O)[C@@H](NC(=O)[C@@H](NC(=O)[C@H](CCCCN)NC(=O)[C@@H](N)CCCCN)C(C)C)C(C)C)C(=O)N[C@@H](CCCCN)C(=O)N[C@@H](Cc1ccccc1)C(=O)N[C@@H](CCCCN)C(=O)O` [KSL-W] (H-KKVVFWVKFK-OH) the MIC [1] was 15.63 to 31.25 µg/mL, the MIC [2] was 0.49 to 0.98 µg/mL and the “LR, Log10 reduction in bacterial metabolism for a given MBIC” value (“LR, Log10 reduction” below) (E. coli cra4038 (EC)) was 3 LR. The “LR, Log10 reduction” value ([3]; cra4024 (EF 01)) was 3 LR, the MBIC ([3]; cra4024 (EF 01, 24 h)) was 3.91 to 7.81 µg/mL and the “LR, Log10 reduction” value ([4]; cra4033 (EF 02)) was 2 LR. For the same compound, the MBIC ([4]; cra4033 (EF 02, 24 h)) was 3.91 µg/mL, the MBIC [5] was 31.25 µg/mL and the “LR, Log10 reduction” value [6] was 2 LR. The “LR, Log10 reduction” value [7] was 3 LR, the MBIC [8] was 31.25 µg/mL and the “LR, Log10 reduction” value ([9]; cra4029 (SE 02)) was 2 LR. The MBIC ([9]; cra4029 (SE 02, 24 h)) was 0.24 to 0.49 µg/mL and the “LR, Log10 reduction” value [10] was 3 LR.
